Reference: PubChem BioAssay AID624167 (Sanford-Burnham Center for Chemical Genomics, 2012)
Calls of active or inactive are those of the source.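 How the source made its calls: active means mean IC50 for reducing PEG3 promoter reporter signal at or below a set limit, with IC50 above the limit in both counter screens; inactive means the rest, including counter screen hits.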

Tests used:
[1] = target: PEG-3 (UniProt Q6IN02); test: inhibition of PEG-3 promoter-driven reporter – cell-based, HeLa, luciferase, CREF/GAPDH counter-screen panel, dose response (AID 624167); settings: HeLa PEG-Prom luciferase reporter, overnight, CREF/GAPDH counter-screens, mean of runs
[2] = test system: PEG-3; test: as above; settings: HeLa PEG-Prom luciferase reporter, overnight, CREF/GAPDH counter-screens
[3] = run 1, dose range 1, individual replicate IC50 per panel
[4] = run 2, dose range 1, individual replicate IC50 per panel

Sequence of PEG-3 (UniProt Q6IN02) (Q6IN02 whole entry, looked up): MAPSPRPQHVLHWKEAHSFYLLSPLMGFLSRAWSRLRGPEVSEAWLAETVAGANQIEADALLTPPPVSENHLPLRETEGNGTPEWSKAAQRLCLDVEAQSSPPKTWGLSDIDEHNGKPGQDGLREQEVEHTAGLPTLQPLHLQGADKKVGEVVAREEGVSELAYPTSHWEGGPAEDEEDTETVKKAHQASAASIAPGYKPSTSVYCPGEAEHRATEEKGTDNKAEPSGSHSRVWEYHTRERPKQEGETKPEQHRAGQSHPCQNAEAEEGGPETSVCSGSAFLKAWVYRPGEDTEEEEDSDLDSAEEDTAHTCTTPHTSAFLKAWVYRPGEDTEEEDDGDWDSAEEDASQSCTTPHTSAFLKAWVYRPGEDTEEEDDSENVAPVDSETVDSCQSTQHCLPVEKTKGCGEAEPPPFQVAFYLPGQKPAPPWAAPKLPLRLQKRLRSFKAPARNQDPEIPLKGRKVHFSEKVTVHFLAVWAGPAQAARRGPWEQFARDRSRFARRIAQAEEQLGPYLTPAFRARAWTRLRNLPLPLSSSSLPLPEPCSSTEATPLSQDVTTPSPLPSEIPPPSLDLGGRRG

| Structure (SMILES) | IC50 [1] | IC50 [2, 3] [µM] | IC50 [2, 4] [µM] |
| --- | --- | --- | --- |
| COc1ccc(C2c3ccc4ccccc4c3Oc3ncn(CCCO)c(=N)c32)cc1 (centres undefined) | 19.9 µM | 22.8 | 17 |
| COc1ccc(CCNC(=O)C(=O)NCC2CCCN2S(=O)(=O)c2ccccc2)cc1OC (centres undefined) | inactive | 29.8 | 39.3 |
| CC1CCCCN1C(=O)c1cccc(NC2=C(Cl)C(=O)N(Cc3ccccc3)C2=O)c1 (centres undefined) | inactive | 29.9 | 51.8 |
| CCN(Cc1ccccc1)S(=O)(=O)c1ccc(C(=O)N(CCCN(C)C)c2nc3cc4c(cc3s2)OCO4)cc1 | 17.8 µM | 19.6 | 16 |
| Cc1ccc2nc(N(CCCN(C)C)C(=O)c3ccc4c(c3)CCCC4)sc2c1 | 19.8 µM | 22 | 17.6 |
| COC(=O)c1ccc(OCC2c3cc(OC)c(OC)cc3CCN2C(=O)c2ccco2)cc1 (centres undefined) | 19.4 µM | 25.2 | 13.6 |
| CCCCCCCCCCCCCCCC(O)C[N+](C)(C)CCO (centres undefined) | 13 µM | 17.7 | 8.35 |
| Oc1c(Cl)cc(Cl)c2cccnc12 | 12.3 µM | 17.9 | 6.75 |
| O=C1NC(=S)NC(=O)C1=Cc1cccn1-c1ccc(O)cc1 | 16.4 µM | 18 | 14.8 |
| CC1CCCCN1CCNC(=O)c1ccc2c(=O)n(Cc3ccc(Cl)cc3)c(=S)[nH]c2c1 (centres undefined) | inactive | 19.6 | 25.3 |
| CCN(CC)CCSc1nnc2c3cc(C)ccc3n(Cc3ccccc3)c2n1 | inactive | 30.6 | 93.6 |
| COC(=O)CSC1=NS(=O)(=O)c2ccccc21 | inactive | > 100 | 33.5 |
| O=C(Nc1ccccc1N1CCOCC1)c1cc(-c2ccncc2)nc2ccccc12 | inactive | 33 | 78.3 |
| Cc1c(C(=O)N2CCC3(CC2)OCCO3)sc2ncnc(N3CCN(c4ccccn4)CC3)c12 | inactive | 24 | 29 |
| CCCC(=O)NC(c1cccc([N+](=O)[O-])c1)c1ccc2cccnc2c1O (centres undefined) | 11.1 µM | 3.15 | 19 |
| O=C1/C(=C\c2cccc(O)c2O)SC(=S)N1Cc1ccccc1 | inactive | 14.1 | 30.1 |
| CSc1ccc2c(c1)C(N1CCN(C)CC1)Cc1ccccc1S2 (centres undefined) | 11.6 µM | 16.9 | 6.17 |
| Cc1ccc(-c2cc(C(=O)Nc3nccs3)c3ccccc3n2)c(C)c1 | inactive | 32.1 | > 100 |
| CCCCCCCn1c(=N)n(CC(O)c2ccco2)c2ccccc21 (centres undefined) | inactive | 22 | 22.2 |
| COc1cccc(C(=O)O/N=C(\N)c2ccccn2)c1 | 11.1 µM | 15.2 | 7.08 |
| COC(=O)c1cc(=O)n(Cc2ccco2)c(=Nc2ccc(F)cc2)s1 | 17.8 µM | 17.6 | 17.9 |
| O=Cc1cn(Cc2cccc(F)c2)c2ccccc12 | inactive | 22.6 | 38.8 |
| COc1ccccc1NC(=O)c1cc(-c2cc(OC)c(OC)c(OC)c2)nc2ccccc12 | 15.2 µM | 27.3 | 3.16 |
| CCCCCCOc1ccc(/C(C)=N/NC2=NCCN2)cc1 | 11.9 µM | 15.7 | 8.2 |
| COc1cccc(/C=N/Nc2cc(C)nc(-c3ccccc3O)n2)c1O | 13 µM | 12.5 | 13.6 |
| CCN1CCN(c2ccc(S(=O)(=O)N3CCOCC3)cc2NC(=O)/C=C/c2ccc([N+](=O)[O-])cc2)CC1 | inactive | 19 | 78.3 |
| COc1cc(-c2cc(C(=O)Nc3cc(S(=O)(=O)N4CCOCC4)ccc3C)c3ccccc3n2)cc(OC)c1OC | 11.8 µM | 11.1 | 12.5 |
| CCC1=C(CC2NCCc3ccccc32)CC2c3cc(OC)c(OC)cc3CCN2C1 (centres undefined) | 14.2 µM | 15.1 | 13.3 |
